Measured values as given in patent publication US12076409B2, “Polymer-drug conjugates for combination anticancer therapy” (priority 2015, dated 2024).

What was measured:
small cell lung cancer = settings: patients with small cell lung cancer; cited from earlier work
BT-474 cells [1] = test: Internalization studies by confocal laser scanning microscopy; type: cell-based, human; settings: BT-474, 24 hrs
Description: To assess the effect of HA-conjugation on the internalization of CPT or DOX in BT-474 cells, confocal laser scanning microscopy was utilized. Cells were seeded at a density of 80,000 cells per 300 μL media in an 8-well chambered borosilicate coverglass (Nunc Lab-Tek), and were allowed to adhere overnight. Cells were exposed to the same drug concentration, the free drug D50, of either the free drug solution or the HA-conjugate form for 24 hrs at 37° C. and 5% CO2. Post-drug incubation, cells were washed twice with warmed PBS (pH 7.4), followed by staining with nuclear dyes at 37° C., 5% CO2. In the case of DOX-exposed cells, Hoechst nuclear dye was utilized at a concentration of 25 μg/mL for 30 minutes. For CPT-exposed cells, to avoid overlap fluorescence between CPT and nuclear marker, DRAQ5 was used to stain nuclei at a concentration of 5 μM in media for 60 minutes. Cells were washed twice more in warm PBS and finally suspended in media immediately prior to imaging. All cells were imaged live with an Olympus Fluoview 1000 spectral confocal equipped with a 60× silicon oil objective and a 37° C. temperature-controlled imaging chamber. […] Z-stacks of 10 μm were captured and subsequently analyzed with ImageJ 1.47h software (NIH). Each z-stack was collapsed into an averaged image, and fluorescence intensity was reported as the raw integrated density divided by number of cells. […]

BT-474 cells [2] = test: Annexin V/Sytox Green apoptosis assay (flow cytometry); type: cell-based, human; settings: BT-474, 72 hours, single drug
Description: Apoptosis assessment was made based on Annexin V and Sytox Green counterstaining. Studies followed the Life Technologies Apoptosis Assay protocol, with few modifications tailored to BT-474 cells. Briefly, cells were seeded at a concentration of 100×10^4 cells per 25 cm^2 cell culture flask in a total volume of 10 mL media, and allowed to adhere overnight. Media was then decanted and replaced with fresh media containing drug(s). Drugs were first dissolved in DMSO and further diluted in media such that cells were not exposed to more than 0.2 vol % DMSO. Cells were incubated in the presence of drug(s) for 72 hours. After drug exposure, cells were harvested at a concentration of 1×10^6 cells/mL in Annexin V binding buffer, and 200 μL of each sample were incubated with 5 μL of Annexin V-647 and 1 μL of 1 μM Sytox Green. After 15 minutes of dye incubation, cells were diluted 5× in ice cold Annexin V Binding Buffer, and immediately analyzed via flow cytometry in a Becton Dickinson FACSAria cell sorter (Franklin Lakes, NJ, USA). To quantify Annexin V-647 and Sytox Green fluorescence, a 633 nm laser with 660 PMT and a 488 nm laser with 530 PMT, respectively, were utilized. […]
Scatter plots obtained from flow cytometry of AnnexinV/Sytox Green counterstained cells were analyzed. These plots were utilized to quantify early apoptotic and late apoptotic/necrotic populations in FIG. 2. […]

[3] = tested on: human breast cancer cell line BT-474; test: MTT cell viability and drug combination studies in BT-474 cells; type: cell-based; settings: BT-474, 72 hours, read-out: D50 (concentration of drug required to inhibit 50% cell growth)
Description: BT-474 or bEnd.3 cells were seeded in a 96-well cell culture plate at a density of 10,000 cells per well in a total volume of 100 μL/well and allowed to adhere overnight. Media was then replaced with fresh media containing drug(s). Drugs were first dissolved in DMSO, and then further diluted in full cell culture medium so as not to expose cells to more than 0.5 vol % DMSO. BT-474 cells were incubated with drug solutions for 72 hours, while bEnd.3 cells were exposed to drug solutions for 48 hours. […] To assess cell viability, the media was replaced with 0.5 mg/mL MTT in media and allowed to incubate for 4 hours. […] Formazan dye intensity was determined by absorbance measured at 570 nm in a Tecan Infinite M200 Pro plate reader (Männedorf, Switzerland). The fraction of inhibited cell growth was calculated by subtracting live cells in experimental wells from untreated control cells and normalizing against control cells. D50 refers to the concentration of drug required to inhibit 50% cell growth. Experimental cytotoxicity data were fitted to the median-effect model developed by Chou and Talalay to obtain in vitro cytotoxicity curves for each drug.

Compound	overall response rate (small cell lung cancer) [%]	intracellular distribution (BT-474 cells [1])	percentage of apoptotic cells (BT-474 cells [2])	IC50 [3] [µM]
COc1cccc2c1C(=O)c1c(O)c3c(c(O)c1C2=O)C[C@@](O)(C(=O)CO)C[C@@H]3O[C@H]1C[C@H](N)[C@H](O)[C@H](C)O1 [DOX, Doxorubicin]	> 20	more diffuse and co-localized with cell nuclei	–	–
CC[C@@]1(O)C(=O)OCc2c1cc1n(c2=O)Cc2cc3ccccc3nc2-1 [CPT, Camptothecin]	–	–	low percentages of apoptotic cells	100
